From patent US20230068020A1, “MACROLIDE COMPOUND AND ITS USE OF TREATMENT CHRONIC RESPIRATORY DISEASE” (priority 2020, published 2023)

Tests used:
Type in all cases: cell-based
THP-1 cell [1] = experiment: Cell viability (LD50) in THP-1 differentiation test; conditions: human
Procedure: The medium lethal dose (LD50) is the dosage of a compound that reduces the cell viability by 50%, and is determined using non-linear logistic regression.

BEAS-2B cell = experiment: Cell viability (LD10) in BEAS-2B IL-8 test; conditions: BEAS-2B cell viability
Source text: The lethal dose (LD10) is the dosage of a compound that reduces the cell viability by […], and is estimated from non-linear logistic regression.

THP-1 cell [2] = experiment: Differentiation of monocyte to macrophage in THP-1 cell line; conditions: Homo sapiens
Procedure: The THP-1 cell line was purchased from ATCC (American Type Culture Collection, Manassas, Va.). Cells were maintained in growth medium (RPMI-1640) with supplemented with 10% heat inactivated bovine serum, 100× Glutamax medium and 0.05 mM β-Mercaptoethanol at 37° C. under 5% CO2. Compounds were dissolved in 0.1% DMSO. Erythromycin was used as a positive control.
For the assessment of the effect of compounds of the present invention on differentiation of monocyte to macrophage in THP-1 cell line, cells were collected and centrifuged at 900 rpm for 4 minutes. The cell density was adjusted to 2.5×10^5/mL. cell suspension of 400 μL was added to each well of 48-well plate following the plate layout. PMA 1 mg, a compound can induce monocyte differentiation, was dissolved in 10 mL DMSO to form 100 μg/mL solution and aliquote it into 1 mL per vial. 1 mL solution can be further aliquoted into 10 μL per vial and stored the aliquots at −20° C. Make 10-fold dilution of PMA with DMSO and then 500-fold dilution with complete medium. 50 μL solution were then added to each well of 48-well plate following the plate layout. Erythromycin and compounds of examples at stock concentration of 10 mM was serially diluted at 10-fold in DMSO. 50 μL solution was added to each well of 48-well plate following the plate layout. After 96 hrs incubation at 37° C., 5% CO2, the plate was washed with DPBS for three times to remove non-adherent cells for three times. Complete medium 180 μL and alarmar blue 20 μL was added to each well. The fluorescent intensity was read at excitation 530 nm and emission 590 nm using PerkinElmer Victor3 after 3 hours plate incubation.
The differentiation activity of compounds of Examples is compared to that of 100 μM erythromycin and the results are shown in FIG. 1 and Table 3.

[3] = test system: Streptococcus pneumoniae ATCC 6301; experiment: Antibacterial activity, agar dilution MIC; conditions: ATCC6301, 20-24 hrs incubation, read-out: minimum inhibitory concentration MIC
Procedure: (§1) The antibacterial activity of Erythromycin and compounds of examples were evaluated by the agar dilution method, following the guidelines of the CLSI. […] Briefly, bacteria were grown overnight in adapted media (MHIIA with 5% of sheep blood for Streptococcus pneumoniae and Haemophilus influenzae, and MHIIA for the other bacteria strains) at 35° C., 5% CO2.
(§2) Cultures were centrifuged at 3000×g for 15 min. Pellets were diluted with 5 mls cold PBS and the OD600nm was adjusted to 10^8 CFU.mL^−1 with a spectrometer. Bacteria were then added to 96-well test plates. Compounds were diluted in DMSO in a 2 fold steps from 20 mg/ml in DMSO in 96 well plated and transferred to the test plate. During the incubation, the plate was maintained at 35° C., 5% CO2.
(§3) The MICs for Erythromycin and compounds of examples were determined after 20-24 hrs incubation.

[4] = test system: Streptococcus pyogenes ATCC BAA-572; experiment: Antibacterial activity, agar dilution MIC; conditions: ATCCBAA572, 20-24 hrs incubation, read-out: minimum inhibitory concentration MIC
Procedure: as §1, §2, §3

[5] = test system: Enterococcus faecalis ATCC 29212; experiment: Antibacterial activity, agar dilution MIC; conditions: ATCC29212, 20-24 hrs incubation, read-out: minimum inhibitory concentration MIC
Procedure: as §1, §2, §3

[6] = test system: Staphylococcus aureus ATCC 29213; experiment: Antibacterial activity, agar dilution MIC; conditions: ATCC29213, 20-24 hrs incubation, read-out: minimum inhibitory concentration MIC
Procedure: as §1, §2, §3

[7] = test system: Moraxella catarrhalis ATCC 43617; experiment: Antibacterial activity, agar dilution MIC; conditions: ATCC43617, 20-24 hrs incubation, read-out: minimum inhibitory concentration MIC
Procedure: as §1, §2, §3

[8] = test system: Acinetobacter baumanii ATCC 17978; experiment: Antibacterial activity, agar dilution MIC; conditions: Acinetobacter baumannii, ATCC17978, 20-24 hrs incubation, read-out: minimum inhibitory concentration MIC
Procedure: as §1, §2, §3

[9] = test system: Acinetobacter baumannii ATCC-BAA-1605; experiment: Antibacterial activity, agar dilution MIC; conditions: ATCCBAA1605, 20-24 hrs incubation, read-out: minimum inhibitory concentration MIC
Procedure: as §1, §2, §3

[10] = test system: Streptococcus pneumoniae ATCC 49619; experiment: Antibacterial activity, agar dilution MIC; conditions: ATCC49619, 20-24 hrs incubation, read-out: minimum inhibitory concentration MIC
Procedure: as §1, §2, §3

[11] = test system: Staphylococcus aureus NRS 384; experiment: Antibacterial activity, agar dilution MIC; conditions: NRS384, 20-24 hrs incubation, read-out: minimum inhibitory concentration MIC
Procedure: as §1, §2, §3

[12] = test system: Haemophilus influenzae ATCC 49247; experiment: Antibacterial activity, agar dilution MIC; conditions: ATCC49247, 20-24 hrs incubation, read-out: minimum inhibitory concentration MIC
Procedure: as §1, §2, §3

[13] = test system: IL-8 expression in BEAS-2B cell; experiment: LPS induced IL-8 release by BEAS-2B (ELISA)
Procedure: The inhibitory effect of compounds of Examples on the IL-8 expression in BEAS-2B cell was tested using the following method. BEAS-2B was purchased from ATCC (American Type Culture Collection, Manassas, Va.). Cells were maintained in growth medium (LHC-9) and cultured at 37° C. under 5% CO2. Compounds were dissolved in 0.1% DMSO. Erythromycin was used as a positive control.
For the assessment of the effect of compounds of Examples on IL-8 expression inhibition in BEAS-2B cell line, cells were plated in 24 well plate at a density of 100,000/mL, in a final volume of 1 mL of assay medium. Cells were incubated at 37° C., 5% CO2 for 1 day. After the incubation, compounds were added at day 2 and LPS was added at day 3. A compound source plate was prepared by triplicate five-point 10-fold or 2-fold serial dilutions in DMSO, beginning at 1 mM (final top concentration of compounds of Examples in the assay was 100 μM and the DMSO was 0.1%). The positive control consisted of cells treated with 100 μM erythromycin and negative control was consisted of 0.1% DMSO treated cells. LPS stock solution at 5 mg/mL was made by dissolving 10 mg of LPS powder into 2 mL of ddH2O and aliquoted to 100 μL per vial. Final concentration of LPS in the assay was […] by making 125-fold dilution of stock solution with medium.
Specific immunoreactivity for IL-8 in culture supernatants were measured by a commercially available ELISA kits (R&D Systems, Inc., Minneapolis, Minn.). Each sample was assayed in duplicates as recommended by the manufacture. The concentration of compounds of Examples inhibiting IL-8 production on BEAS-2B by 10% was estimated from a 4-parametric of the normalized dose response curve. (IC10)

CC[C@H]1OC(=O)[C@H](C)[C@@H](O[C@H]2C[C@@](C)(OC)[C@@H](O)[C@H](C)O2)[C@H](C)[C@@H](O[C@H]2C[C@@H](NC)C[C@@H](C)O2)[C@@](C)(O)C[C@@H](C)C(=O)[C@H](C)[C@@H](O)[C@]1(C)O [LY101-25, (3R,4S,5S,6R,9R,11R,12R,13S,14R)-14-ethyl-7,12,13-trihydroxy-4-(((2R,4R,5S,6S)-5-hydroxy-4-methoxy-4,6-dimethyltetrahydro-2H-pyran-2-yl)oxy)-3,5,7,9,11,13-hexamethyl-6-(((2S,4S,6R)-6-methyl-4-(methylamino)tetrahydro-2H-pyran-2-yl)oxy)oxacyclotetradecane-2,10-dione]
LD50 (THP-1 cell [1]): 21.1 ± 5.3 µM | LD10 (BEAS-2B cell): 15 µM | EC50 (THP-1 cell [2]; THP-1 differentiate to macrophage, PMA, 96 hrs incubation): 1 ± 0.3 µM | Emax (THP-1 cell [2]; ratio of best effect of compound to that of erythromycin 100 uM, THP-1 differentiation, read-out: Maximal activation level): 540 ± 110% | MIC [3]: > 128 mg/L | MIC [4]: > 128 mg/L | MIC [5]: > 128 mg/L | MIC [6]: > 128 mg/L | MIC [7]: > 128 mg/L | MIC [8]: > 128 mg/L | MIC [9]: > 128 mg/L | MIC [10]: > 128 mg/L | MIC [11]: > 128 mg/L | MIC [12]: > 128 mg/L | Maximum Inhibition ([13]; IL-8 expression in BEAS-2B cells, LPS): 53% | IC10 ([13]; concentration inhibiting IL-8 production on BEAS-2B by 10%, LPS 20 μg/mL): 1 µM
